Experimental data published in US11427556B2, “Urea derivatives as inhibitors of ASK1” (Hepagene Therapeutics (HK) Limited, priority 2017, dated 2022).

What follows are molecules tested against T1, Recombinant human ASK1 kinase (Homo sapiens, UniProt Q99683) (assay: ASK1 kinase HTRF assay (HTRF KinEASE-STK, phosphorylation of biotinylated peptide substrate)). Conditions: not given.
T1 construct: purchased Invitrogen Inc
T1 sequence (Q99683 1-1374): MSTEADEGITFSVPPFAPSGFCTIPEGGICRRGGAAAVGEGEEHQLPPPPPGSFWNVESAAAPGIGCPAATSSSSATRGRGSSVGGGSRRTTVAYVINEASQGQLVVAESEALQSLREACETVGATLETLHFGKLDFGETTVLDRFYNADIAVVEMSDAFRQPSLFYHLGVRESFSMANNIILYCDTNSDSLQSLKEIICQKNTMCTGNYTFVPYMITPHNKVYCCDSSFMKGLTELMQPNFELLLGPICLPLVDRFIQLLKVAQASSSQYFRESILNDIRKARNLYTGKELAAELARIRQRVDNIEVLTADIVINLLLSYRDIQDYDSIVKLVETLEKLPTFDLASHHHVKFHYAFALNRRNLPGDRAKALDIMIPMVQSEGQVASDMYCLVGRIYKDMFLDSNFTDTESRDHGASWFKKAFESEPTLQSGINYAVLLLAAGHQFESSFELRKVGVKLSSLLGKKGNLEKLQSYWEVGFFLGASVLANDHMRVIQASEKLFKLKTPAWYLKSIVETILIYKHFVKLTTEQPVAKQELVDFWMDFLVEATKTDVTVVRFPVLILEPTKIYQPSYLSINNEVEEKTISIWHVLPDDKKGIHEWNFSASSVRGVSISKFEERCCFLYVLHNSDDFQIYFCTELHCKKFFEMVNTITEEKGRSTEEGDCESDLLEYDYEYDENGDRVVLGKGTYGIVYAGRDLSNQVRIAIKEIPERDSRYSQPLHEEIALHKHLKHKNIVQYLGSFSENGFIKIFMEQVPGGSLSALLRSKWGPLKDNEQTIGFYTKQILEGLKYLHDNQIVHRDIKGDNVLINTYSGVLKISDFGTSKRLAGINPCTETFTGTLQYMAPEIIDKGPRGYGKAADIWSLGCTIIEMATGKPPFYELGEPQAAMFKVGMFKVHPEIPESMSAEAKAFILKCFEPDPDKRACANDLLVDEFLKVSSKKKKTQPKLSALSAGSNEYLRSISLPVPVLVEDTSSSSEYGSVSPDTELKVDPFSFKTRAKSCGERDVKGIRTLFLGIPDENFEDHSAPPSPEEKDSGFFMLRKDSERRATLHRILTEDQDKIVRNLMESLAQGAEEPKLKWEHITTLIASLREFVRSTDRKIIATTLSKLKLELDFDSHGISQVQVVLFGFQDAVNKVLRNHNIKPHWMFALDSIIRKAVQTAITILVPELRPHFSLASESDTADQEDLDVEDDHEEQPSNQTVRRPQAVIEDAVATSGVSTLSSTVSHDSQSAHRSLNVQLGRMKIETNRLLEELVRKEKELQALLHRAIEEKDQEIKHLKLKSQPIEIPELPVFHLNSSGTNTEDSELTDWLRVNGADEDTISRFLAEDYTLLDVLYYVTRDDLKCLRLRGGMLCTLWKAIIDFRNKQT
Assay type: biochemical
Outline: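 HTRF KinEASE-STK read-out of biotinylated peptide phosphorylation. Compound incubated with 3 nM ASK1 and 1 uM STK-substrate-biotin in kinase buffer containing 5 mM MgCl2 and 1 mM DTT.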

`CC(C)n1cnnc1-c1cccc(NC(=O)Nc2cc(C(=O)N3CCOCC3)ccn2)n1` [Compound I-132] and `CC(C)n1cnnc1-c1cccc(NC(=O)Nc2cc3ccccc3cn2)n1` [Compound I-057] cannot be ordered by EC50: < 0.05 µM for the first, < 0.05 µM for the second.

Same assay, conditions: 3 nM ASK1 kinase, 1 uM STK-substrate-biotin, HTRF detection; read-out: EC50

`CC(C)n1cnnc1-c1cccc(NC(=O)Nc2ccc(CO)cn2)n1` [Compound I-208] and `CC(C)n1cnnc1-c1cccc(NC(=O)Nc2ccc(F)cn2)n1` [Compound I-188] cannot be ordered by EC50: < 0.05 µM for the first, < 0.05 µM for the second.

`C[C@H](CO)n1cnnc1-c1cccc(NC(=O)Nc2cc(C(=O)N3CCC(N4CCOCC4)CC3)ccn2)n1` [Compound I-131] and `C[C@H](CO)n1cnnc1-c1cccc(NC(=O)Nc2cc(N3CCC(N4CCOCC4)CC3)ccn2)n1` [Compound I-107] cannot be ordered by EC50: < 0.05 µM for the first, < 0.05 µM for the second.

`CC(C)n1cnnc1-c1cccc(NC(=O)Nc2cc(N3CCN(S(C)(=O)=O)CC3)ccn2)n1` [Compound I-102] and `CC(C)n1cnnc1-c1cccc(NC(=O)Nc2cc(N3CCN(C)CC3)ccn2)n1` [Compound I-005, 1-(6-(4-Isopropyl-4H-1,2,4-triazol-3-yl)pyridin-2-yl)-3-(4-(4-methylpiperazin-1-yl)pyridin-2-yl)urea] cannot be ordered by EC50: < 0.05 µM for the first, < 0.05 µM for the second.

`CC(C)n1cnnc1-c1cccc(NC(=O)Nc2cc(C(=O)Nc3ccc(F)cc3)ccn2)n1` [Compound I-158] and `CNc1ccnc(NC(=O)Nc2cccc(-c3nncn3C(C)C)n2)c1` [Compound I-190] cannot be ordered by EC50: < 0.05 µM for the first, < 0.05 µM for the second.

`CC(C)n1cnnc1-c1cccc(NC(=O)Nc2ncccc2O)n1` [Compound I-072] and `CC(C)n1cnnc1-c1cccc(NC(=O)Nc2ncccc2F)n1` [Compound I-186] cannot be ordered by EC50: < 0.05 µM for the first, < 0.05 µM for the second.

`CC(C)n1cnnc1-c1cccc(NC(=O)Nc2nc3ccccc3o2)n1` [Compound I-216] and `CC(C)n1cnnc1-c1cccc(NC(=O)Nc2ncco2)n1` [Compound I-215] cannot be ordered by EC50: < 0.05 µM for the first, < 0.05 µM for the second.

`CC(C)n1cnnc1-c1cccc(NC(=O)Nc2cc(C(=O)N3C4CCCC3CC4)ccn2)n1` [Compound I-149] and `CC(C)n1cnnc1-c1cccc(NC(=O)Nc2cc(C(=O)N3CCCC[C@@H]3C)ccn2)n1` [Compound I-118] cannot be ordered by EC50: < 0.05 µM for the first, < 0.05 µM for the second.

`CC(C)n1cnnc1-c1cccc(NC(=O)Nc2ccc(Cl)cn2)n1` [Compound I-184] and `CC(C)n1cnnc1-c1cccc(NC(=O)Nc2ccc(N)cn2)n1` [Compound I-209] cannot be ordered by EC50: < 0.05 µM for the first, < 0.05 µM for the second.

`CC(C)n1cnnc1-c1cccc(NC(=O)Nc2cc(Br)ccn2)n1` [Compound I-177] and `CC(C)n1cnnc1-c1cccc(NC(=O)Nc2ccc(I)cn2)n1` [Compound I-174] cannot be ordered by EC50: < 0.05 µM for the first, < 0.05 µM for the second.

`CC(C)n1cnnc1-c1cccc(N2CCN(c3ccc(N4CCNCC4)cn3)C2=O)n1` [Compound V-01, 1-(6-(4-Isopropyl-4H-1,2,4-triazol-3-yl)pyridin-2-yl)-3-(5-(piperazin-1-yl)pyridin-2-yl)imidazolidin-2-one] and `CC1CN(c2ccc(N3CCN(c4cccc(-c5nncn5C(C)C)n4)C3=O)nc2)CCO1` (centres unmarked) [Compound V-17] cannot be ordered by EC50: < 0.05 µM for the first, < 0.05 µM for the second.

`CC(C)N1CCN(c2ccnc(NC(=O)Nc3cccc(-c4nncn4C(C)C)n3)c2)CC1` [Compound I-098] and `CC(C)n1cnnc1-c1cccc(NC(=O)Nc2cc(N3CCCCC3)ccn2)n1` [Compound I-105] cannot be ordered by EC50: < 0.05 µM for the first, < 0.05 µM for the second.

First: C[C@@H](CO)n1cnnc1-c1cccc(NC(=O)Nc2ccccn2)n1 [Compound I-027]
Second: C[C@H](CO)n1cnnc1-c1cccc(NC(=O)Nc2cc(-c3ccccn3)ccn2)n1 [Compound I-085]
The EC50 of the first is higher: 0.05 to 0.5 µM for the first, < 0.05 µM for the second. The second is the more potent here.

First: CC(C)n1cnnc1-c1cccc(NC(=O)Nc2ccc(-c3ccncc3)cn2)n1 [Compound I-090]
Second: CC(C)n1cnnc1-c1cccc(NC(=O)Nc2ncccc2-c2ccncc2)n1 [Compound I-083]
The EC50 of the first is lower: < 0.05 µM for the first, 0.05 to 0.5 µM for the second.

First: CC(C)n1cnnc1-c1cccc(NC(=O)Nc2ncccc2-c2ccccc2)n1 [Compound I-075]
Second: CC(C)n1cnnc1-c1cccc(NC(=O)Nc2cc(-c3ccccn3)ccn2)n1 [Compound I-084]
The EC50 of the first is higher: 0.05 to 0.5 µM for the first, < 0.05 µM for the second. The second is the more potent here.

`CC(C)n1cnnc1-c1cccc(N2CCN(c3ccc(C(=O)N4CCOCC4)cn3)C2=O)n1` [Compound V-25] and `C[C@H](CO)n1cnnc1-c1cccc(N2CCN(c3ccc(C(=O)N4CCCCC4)cn3)C2=O)n1` [Compound V-23] cannot be ordered by EC50: < 0.05 µM for the first, < 0.05 µM for the second.

`CC(C)n1cnnc1-c1cccc(NC(=O)Nc2ccc(OCc3ccccc3)cn2)n1` [Compound I-071] and `CC(C)n1cnnc1-c1cccc(NC(=O)Nc2cc(S(=O)(=O)Nc3ccccc3)ccn2)n1` [Compound I-014, 1-[4-(Phenylsulfamoyl)pyridin-2-yl]-3-[6-[4-(propan-2-yl)-4H-1,2,4-triazol-3-yl]pyridin-2-yl]urea] cannot be ordered by EC50: < 0.05 µM for the first, < 0.05 µM for the second.

`CC(C)n1cnnc1-c1cccc(NC(=O)Nc2cc(C(=O)N3CC[C@@H]4CCCC[C@H]4C3)ccn2)n1` [Compound I-127] and `CC(C)n1cnnc1-c1cccc(NC(=O)Nc2cc(C(=O)N3CCC(O)CC3)ccn2)n1` [Compound I-136] cannot be ordered by EC50: < 0.05 µM for the first, < 0.05 µM for the second.

Compared with `CC(C)n1cnnc1-c1cccc(NC(=O)Nc2cccc(C#N)n2)n1` [Compound I-200], `CC(C)n1cnnc1-c1cccc(NC(=O)Nc2cccc(N3CCCC3)n2)n1` [Compound I-166] is higher in EC50: < 0.05 µM for the first, 0.05 to 0.5 µM for the second.

`CC(C)n1cnnc1-c1cccc(NC(=O)Nc2ncccc2C(F)(F)F)n1` [Compound I-193] and `CC(C)n1cnnc1-c1cccc(NC(=O)Nc2ccc([N+](=O)[O-])cn2)n1` [Compound I-210] cannot be ordered by EC50: < 0.05 µM for the first, < 0.05 µM for the second.

`C[C@H](CO)n1cnnc1-c1cccc(NC(=O)Nc2cc(C(=O)N3CCN(C)CC3)ccn2)n1` [Compound I-142] and `C[C@H](CO)n1cnnc1-c1cccc(NC(=O)Nc2cc(C(=O)N3CCC4(CCCCC4)CC3)ccn2)n1` [Compound I-129] cannot be ordered by EC50: < 0.05 µM for the first, < 0.05 µM for the second.

`CC(C)n1cnnc1-c1cccc(N2CCN(c3ccc(-c4ccncc4)cn3)C2=O)n1` [Compound V-07] and `CC(C)n1cnnc1-c1cccc(N2CCN(c3ccc(-c4ccccc4)cn3)C2=O)n1` [Compound V-05] cannot be ordered by EC50: < 0.05 µM for the first, < 0.05 µM for the second.

Compared with `CC(C)n1cnnc1-c1cccc(-n2ccn(-c3ccc(N4CCNCC4)cn3)c2=O)n1` [III-04, 1-(6-(4-Isopropyl-4H-1,2,4-triazol-3-yl)pyridin-2-yl)-3-(5-(piperazin-1-yl)pyridin-2-yl)-1H-imidazol-2(3H)-one], `Cc1ccc(-n2ccn(-c3cccc(-c4nncn4C(C)C)n3)c2=O)c(F)c1` [III-01, 3-(2-Fluoro-4-methylphenyl)-1-(6-(4-isopropyl-4H-1,2,4-triazol-3-yl)pyridin-2-yl)-1H-imidazol-2(3H)-one] is higher in EC50: < 0.05 µM for the first, 0.05 to 0.5 µM for the second.

`Cc1ccc(NC(=O)Nc2cccc(-c3nncn3[C@@H](C)CO)n2)nc1` [Compound I-037] and `CC(=O)OC[C@@H](C)n1cnnc1-c1cccc(NC(=O)Nc2cc3ccccc3cn2)n1` [Compound I-061] fall in the same range of EC50: 0.05 to 0.5 µM for the first, 0.05 to 0.5 µM for the second.

First: C[C@H](CO)n1cnnc1-c1cccc(-n2ccn(-c3cc(-c4ccccc4)ccn3)c2=O)n1 [III-08]
Second: CC(C)n1cnnc1-c1cccc(NC(=O)Nc2cc(-c3cccnc3)ccn2)n1 [Compound I-086]
The EC50 of the first is higher: 0.05 to 0.5 µM for the first, < 0.05 µM for the second.

`CC(C)n1cnnc1-c1cccc(NC(=O)Nc2cc(S(=O)(=O)N3CCOCC3)ccn2)n1` [Compound I-207] and `CC(C)n1cnnc1-c1cccc(NC(=O)Nc2cc(N3CCC(N4CCOCC4)CC3)ccn2)n1` [Compound I-106] cannot be ordered by EC50: < 0.05 µM for the first, < 0.05 µM for the second.

`CC(C)n1cnnc1-c1cccc(NC(=O)Nc2cc(C(=O)N3CCCCCC3)ccn2)n1` [Compound I-147] and `CC(C)n1cnnc1-c1cccc(NC(=O)Nc2cc(C(=O)N3CCC(F)(F)CC3)ccn2)n1` [Compound I-143] cannot be ordered by EC50: < 0.05 µM for the first, < 0.05 µM for the second.

`CC(C)n1cnnc1-c1cccc(NC(=O)Nc2cc(C3CCCCC3)ccn2)n1` [Compound I-049] and `CC(C)n1cnnc1-c1cccc(NC(=O)Nc2cc(-c3ccc(C4CC4)cc3)ccn2)n1` [Compound I-080] cannot be ordered by EC50: < 0.05 µM for the first, < 0.05 µM for the second.
